Results as given in patent US5266594A, “Inhibitors of nitric oxide synthase and use thereof to prevent glutamate neurotoxicity” (priority 1992, dated 1993).

How the values were obtained:
[1] = target: brain NOS (cerebellar NOS) (Rattus norvegicus, UniProt P29476); test: inhibition of NOS activity, conversion of [^3 H]arginine to [^3 H]citrulline, cerebellar homogenates/supernatants in vitro
Description: (§1) Inhibitors of NOS are compounds which compete for the substrate binding site of NOS or other sites on the enzyme, and include both reversible and irreversible inhibitors. The present invention contemplates the use of any physiologically acceptable inhibitor which inhibits NOS activity. The effectiveness of a compound, and its relative potency as an NOS inhibitor, can be tested and routinely determined by measuring inhibition of NOS activity by monitoring the conversion of arginine to citrulline by NOS in, for example, cerebellar homogenates. A reduction in citrulline formation indicates inhibitory activity of the compound. The percent reduction in citrulline formation, compared to the amount of citrulline formed in the absence of the compound being tested, indicates the potency of the compound as an NOS inhibitor.
Rat cerebella were homogenized in 10 vols. (w/v) […] Tris (pH 7.4), 2 mM EDTA. Homogenates were centrifuged at 10,000×g for 15 minutes at 4° C. Supernatant preparations were used in the enzyme assays. Cerebellar tissue was dialyzed (Spectra/Por, 10,000 MWCO, EDTA-treated cellulose dialysis tubing) against 20 mM Tris (pH 7.4), 2 mM EDTA (300 ml×2) for 24 hours at 4° C.
Cerebellar homogenates were incubated with arginine derivatives for one hour at 4° C., and dialyzed overnight. Aliquots (25 μg protein) were assayed for NOS activity before and after dialysis.
(§2) NOS activity was measured by monitoring the conversion of [^3 H]arginine to [^3 H]citrulline as described by Bredt and Snyder (Proc. Natl. Acad. Sci USA (1990) 87682-685). Briefly, enzyme assays contained 25 μl of soluble tissue, 50 μl of […] [^3 H]arginine and 1 mM NADPH, and 25 μl of 3 mM CaCl2. After a 15 minute incubation at room temperature, the assays were terminated with 3 ml of 20 mM Hepes (pH 5.5) with 2 mM EDTA, and were applied to 0.5 ml columns of Dowex AG50WX8 (Na^+ form). [^3 H]citrulline was quantified by liquid scintillation spectroscopy of the 3 ml flow-through.
(§3) Accordingly, the effects of 2, 4 and 24 hours of preincubations of cerebellar supernatants (FIG. 2A) and activated macrophage homogenates (FIG. 2B) with NO2 Arg were examined. The preincubation was conducted at 4° C. since NOS is unstable at higher temperature for long periods of time. Enzymatic incubation was conducted for only 5 minutes to minimize any reaction of the inhibitor with the enzyme in the course of the incubation procedure.
Cerebellar supernatants were made as described in Example 1.

[2] = test system: macrophage NOS (activated macrophage homogenates); test: inhibition of NOS activity in activated macrophage homogenates in vitro; type: biochemical
Description: as §1, §2, §3
Macrophages were activated as described by Tayeh and Marletta (J. Biol. Chem. (1989) 264:19654-19658) with 3.5 ng/ml LPS from E. coli and 5 units/ml recombinant murine γ-interferon for 24 hours at 37° C. Cells were homogenized in 20 mM Hepes (pH 7.4).

[3] = test system: brain or macrophage enzyme (NOS); test: NOS inhibition and brain/macrophage selectivity of arginine, nitroarginine and guanidinoalkanoic acid analogs; type: biochemical
[4] = test system: brain-endothelial and macrophage NOS; conditions: cited from earlier work

Sequence of brain NOS (cerebellar NOS) (P29476 whole entry): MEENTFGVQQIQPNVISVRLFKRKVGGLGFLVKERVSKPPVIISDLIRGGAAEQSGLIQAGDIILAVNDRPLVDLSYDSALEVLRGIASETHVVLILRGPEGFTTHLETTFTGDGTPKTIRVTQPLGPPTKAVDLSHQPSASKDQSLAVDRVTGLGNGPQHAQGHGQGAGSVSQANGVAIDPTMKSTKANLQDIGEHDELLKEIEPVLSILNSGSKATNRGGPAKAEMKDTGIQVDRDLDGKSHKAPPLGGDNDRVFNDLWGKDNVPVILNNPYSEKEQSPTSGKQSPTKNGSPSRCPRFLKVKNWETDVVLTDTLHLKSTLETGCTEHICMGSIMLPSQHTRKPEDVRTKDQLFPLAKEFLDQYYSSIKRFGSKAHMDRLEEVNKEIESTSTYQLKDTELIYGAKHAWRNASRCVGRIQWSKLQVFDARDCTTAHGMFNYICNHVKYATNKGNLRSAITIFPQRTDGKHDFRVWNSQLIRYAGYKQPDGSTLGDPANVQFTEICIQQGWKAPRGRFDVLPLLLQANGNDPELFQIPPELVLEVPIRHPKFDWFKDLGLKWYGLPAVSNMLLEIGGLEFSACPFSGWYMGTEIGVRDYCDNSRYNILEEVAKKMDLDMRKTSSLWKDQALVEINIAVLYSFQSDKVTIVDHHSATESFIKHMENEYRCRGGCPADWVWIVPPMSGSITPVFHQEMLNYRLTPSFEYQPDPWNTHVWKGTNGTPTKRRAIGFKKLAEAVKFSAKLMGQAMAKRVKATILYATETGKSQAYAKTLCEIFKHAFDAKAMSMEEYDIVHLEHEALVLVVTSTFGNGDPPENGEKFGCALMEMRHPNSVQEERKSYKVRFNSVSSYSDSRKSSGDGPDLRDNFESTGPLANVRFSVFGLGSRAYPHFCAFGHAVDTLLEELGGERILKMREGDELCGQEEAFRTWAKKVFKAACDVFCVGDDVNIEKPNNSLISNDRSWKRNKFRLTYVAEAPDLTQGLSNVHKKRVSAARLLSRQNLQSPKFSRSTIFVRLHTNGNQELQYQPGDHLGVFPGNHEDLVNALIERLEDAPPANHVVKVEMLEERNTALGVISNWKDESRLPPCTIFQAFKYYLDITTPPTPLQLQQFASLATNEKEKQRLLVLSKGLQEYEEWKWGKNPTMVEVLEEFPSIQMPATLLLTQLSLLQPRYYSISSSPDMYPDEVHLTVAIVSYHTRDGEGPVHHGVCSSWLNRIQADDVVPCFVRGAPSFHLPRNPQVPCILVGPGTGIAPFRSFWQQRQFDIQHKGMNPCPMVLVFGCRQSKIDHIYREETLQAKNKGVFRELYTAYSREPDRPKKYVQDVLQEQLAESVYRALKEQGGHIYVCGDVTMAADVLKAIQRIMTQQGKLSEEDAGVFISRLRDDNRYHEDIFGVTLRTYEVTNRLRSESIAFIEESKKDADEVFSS

For `N=C(NCCC[C@H](N)C(=O)O)N[N+](=O)[O-]` [NO2 Arg, L-N^ω -nitroarginine], the “effect of preincubation on potency of inhibition” value ([1]; 2 hour preincubation at 4° C., FIG. 2A) was “increases the potency of inhibition”, the “nature of inhibition of cerebellar NOS in vitro” value ([1]; FIG. 1, before and after dialysis) was “irreversible inhibition” and the “relative potency as inhibitor of NOS activity” value ([1]; cerebellar supernatant preparations, FIG. 1) was “more potent inhibitor of NOS activity than MeArg”. The “augmentation of potency by preincubation” value ([1]; preincubation for 24 hours at 4° C.) was “about 15 times”, the “potency in inhibiting the macrophage enzyme compared to the cerebellar enzyme” value ([2]; 24 hours of incubation) was “about 7%” and the “enhancement of potency after preincubation” value ([2]; preincubation with the enzyme, 24 hours, FIG. 2B) was “only a minimal enhancement of potency”. For the same compound, the “potency as NOS inhibitor relative to cerebellar preparations” value ([2]; supernatant preparations of activated macrophage cultures, FIG. 2B) was “less potent inhibitor of NOS than in cerebellar preparations”, the “inhibition potency among nitroarginine analogs” value [3] was “most potent inhibitor” and the “inhibition of brain-endothelial versus macrophage enzyme” value ([4]; Gross et al. (1990)) was “weaker inhibitor of the macrophage enzyme”. The “greater potency in inhibiting brain-endothelial than macrophage NOS” value ([4]; incubations at 37° C. for about 1/2 hour, 30 min) was 10-300 fold.
